# Experimental data reported in patent EP2735339B1, “Extract and isolated compounds from Drechslera rostrata and/or Eurotium tonophilum for use as anti-leishmania-major agents” (King Saud University, priority 2012, dated 2014).
# Like-named read-outs stand apart in the source and are kept apart here.
# Legend:
# Leishmania major = assay: In vivo anti-leishmanial activity, lesion size in infected mice under oral treatment; details: for Mean + SD lesion size(mm), day 1 of treatment: day 1 of oral treatment; for Mean + SD lesion size(mm), day 1 of treatment / Mean + SD lesion size(mm), day 4 of treatment / Mean + SD lesion size(mm), day 8 of treatment / Mean + SD lesion size(mm), day 11 of treatment / Mean + SD lesion size(mm), day 15 of treatment / Mean + SD lesion size(mm), day 18 of treatment / Mean + SD lesion size(mm), day 25 of treatment / Mean + SD lesion size(mm), day 28 of treatment: mice infected with L.major, n = 6; for Mean + SD lesion size(mm), day 4 of treatment: day 4 of oral treatment; for Mean + SD lesion size(mm), day 8 of treatment: day 8 of oral treatment; for Mean + SD lesion size(mm), day 11 of treatment: day 11 of oral treatment; for Mean + SD lesion size(mm), day 15 of treatment: day 15 of oral treatment; for Mean + SD lesion size(mm), day 18 of treatment: day 18 of oral treatment; for Mean + SD lesion size(mm), day 25 of treatment: day 25 of oral treatment; for Mean + SD lesion size(mm), day 28 of treatment: day 28 of oral treatment
# Protocol: Balb/c mice ([…]) males were provided by Girls collage of science, Zoology department, King Saud University, Riyadh, KSA). The animals were housed in standard plastic cages and were maintained on standard feed and water ad libitum.
# Each mouse was inoculated in the lumbar area with 10^7 of stationary phase Leishmania major suspended in 0.1 ml RPMI medium. The mice were kept at the animal house for 3-4 weeks till the lesion was observed. Extracts were administrated orally (400 mg/kg mouse body weight) daily until complete recovery from the lesion. Liver functions tests and histopathological examination of organs (liver, spleen and kidney) were done at the end of study.
# [1] = test system: Promastigotes of the reference strain of Leishmania major; assay: In vitro anti-leishmanial activity, MTT assay on promastigotes; assay type: cell-based; details: 72 hours, 26 °C
# Protocol: Parasite: Promastigotes of the reference strain of Leishmania major were grown in RPMI-1640 medium supplemented with 10.000 Unites penicillin 10 µg of treptomycin/ml and 10 % heat inactivated fetal calf serum in 50 ml Nunc flasks at 26 °C in a dark environment. All experiments were performed with parasite cultures in the stationary phase by allowing them to grow for seven days.
# Promastigotes were resuspended in fresh medium to achieve 10^6 parasites/ml and were seeded in 96-well Nunc culture plate, each well containing 100 µl medium with different concentrations of total extracts for both fungi (Drechslera rostrata and Eurotium tonophilum) in addition to the four isolated compounds. Control wells received only culture medium. The plates were incubated in 26 °C for 72 hours and Promastigotes viability was evaluated by the quantitative colorimetric MTT assay. The alteration of MTT to the formazan product by the mitochondrial electron transport chain is an indicator of cell viability, and a decrease in the amount of MTT converted indicated toxicity to the cell.
# Briefly, the MTT labeling reagent was added to each well to the final concentration of 0.25 mg/ml. After incubation for 3 hours at 26 °C, DMSO was added to dissolve the formazan crystals and obtain a homogeneous blue solution suitable for measurement of the absorbance with an enzyme-linked immunosorbent assay plate reader (wave length 492).
# Percent growth inhibition of the parasite was calculated by the following formula: % of inhibition = ((OD control-OD drugs))/(OD control) X 100 [formula]
# The concentration inhibiting 50 % of the parasite growth (IC50) was calculated after evaluating percent growth inhibition at different concentrations. Reference compound was Pentostam.
# Stock solutions of the total extracts , compounds, plus control drugs, were prepared at a concentration of 20 mg mL-1 in DMSO (Sigma, UK), and diluted to appropriate concentrations prior to assays. IC50 values were calculated with MSXLFIT (IDBS, UK) Djalma et al., J. Braz. Chem. Soc. Vol. 20, No. 4, 644-651, (2009).
# Leishmania amazonensis = details: growth of Leishmania amazonensis; cited from earlier work
# leishmania [2] = details: against leishmania; cited from earlier work
# leishmania [3] = details: antileishmanial activity; cited from earlier work
# Leishmania spp = details: growth of Leishmania spp; cited from earlier work
Compound,"Mean + SD lesion size(mm), day 1 of treatment (Leishmania major) [mm]","Mean + SD lesion size(mm), day 4 of treatment (Leishmania major) [mm]","Mean + SD lesion size(mm), day 8 of treatment (Leishmania major) [mm]","Mean + SD lesion size(mm), day 11 of treatment (Leishmania major) [mm]","Mean + SD lesion size(mm), day 15 of treatment (Leishmania major)","Mean + SD lesion size(mm), day 18 of treatment (Leishmania major)","Mean + SD lesion size(mm), day 25 of treatment (Leishmania major)","Mean + SD lesion size(mm), day 28 of treatment (Leishmania major)",other results
"O.O.O.O.O.O.O.O.O.O=C([O-])[C@@H]1[O][Sb](=[O])([O][Sb]2(=[O])[O][C@H]([C@H](O)CO)[C@H](O)[C@H](C(=O)[O-])[O]2)[O][C@H]([C@H](O)CO)[C@@H]1O.[Na+].[Na+].[Na+] (stereo partly shown) [Pentostam, reference compound]",9.56±1.3,8.98±2.0,7.45±1.8,6.9±1.3,5.39±3.1 mm,4.32±2.1 mm,3.30±2.1 mm,2.61±2.5 mm,"complete heeling after 28 days (Leishmania major; standard drug, 28 days): did not show complete heeling"
"OCC(O)C(O)C(O)C(O)CO (stereo not shown) [Compound H1, Hexane-1,2,3,4,5,6-hexol]",9.95±1.5,7.19±1.2,4.85±1.2,2.78±1.7,1.21+1.1 mm,zero,zero,zero,IC50 ([1]; read-out: IC50): 6.5 µg/mL
C=C1C(=O)O[C@H]2C[C@@](C)(O)C3=CC[C@](C)(O)[C@@H]3C[C@H]12 [guaianolide],,,,,,,,,IC50 (Leishmania amazonensis): 2.6 µg/mL
"C=CCCC/C=C\C/C=C\CCCCCCCc1cc(O)cc(O)c1 [5-heptadeca-8'Z,11'Z,16-trienylresorcinol]",,,,,,,,,IC50 (leishmania [2]): 3.6 µg/mL
C/C=C(/C)C(=O)OC[C@H]1C2=C(C[C@H]3[C@H]4C5=C(C(=O)C(C)=C(OC)C5=O)[C@H](O)[C@@H](CN13)N4C)C(=O)C(C)=C(OC)C2=O [Renieramycin A],,,,,,,,,IC50 (leishmania [3]): 0.2 µg·mL
C=C1CCC[C@H]2[C@]1(CC[C@@]1(C)C3=CCCC(C)(C)[C@@H]3CC[C@@H]1C)CC[C@H](C)[C@]2(C)Cc1cc(OS(=O)(=O)O)ccc1OS(=O)(=O)O [isoakaterpin],,,,,,,,,IC50 (Leishmania spp): 1.05 µM
"1,8-Dihydroxy-3-methoxy-6-methyl-anthraquinone [Compound H3]",9.23±1.4,7.28±2.1,5.15±1.4,3.41±1.8,2.31±2.6 mm,zero,zero,zero,IC50 [1]: 19.38 µg/mL
Diisooctylphthalate [Compound H2],9.13±1.2,6.18±1.2,4.15±1.2,1.11±1.2,0.21±1.5 mm,zero,zero,zero,IC50 [1]: 3.2 µg/mL
